We go through nine compounds from patent US7259003B2, “Escherichia bacteria transformed with a yedA homolog to enhance L-amino acid producing activity, and methods for producing an L-amino acid using same” (priority 2001, dated 2007).

Holding throughout (format): cell-based
Holding throughout (conditions): 37° C.

Assay [1] has as its system E. coli strain TG1 (pUC19). The assay is described as follows: Growth of E. coli TG1 (pUC19) on M9 glucose minimal agar containing amino acids and amino acid analogs. As for the experimental part: (§1) The pYEDA1 and pYEDA2 plasmids and the pUC19 and pAYCTER3 vectors were introduced into E. coli strain TG1. Thus the strains TG1 (pYEDA1), TG1 (pYEDA2), TG1 (pUC19) and TG1 (pAYCTER3) were obtained.
(§2) Then the ability of these strains to grow in the presence of amino acids and amino acid analogues for each strain were determined on M9 glucose minimal agar plates containing graded concentrations of inhibitor. The plates were spotted with 10^6 to 10^7 cells from an overnight culture grown in a minimal medium (supplemented with 100 μg/ml of ampicillin for plasmid strains). The growth was estimated after 44 h incubation at 37° C.

The test system of assay [2] is E. coli strain TG1 (pYEDA1). The assay is described as follows: Growth of E. coli TG1 (pYEDA1) on M9 glucose minimal agar containing amino acids and amino acid analogs. How it is done:
as §1, §2

Assay [3] concerns E. coli strain TG1 (pYEDA2). Nature of the assay: Growth of E. coli TG1 (pYEDA2) on M9 glucose minimal agar containing amino acids and amino acid analogs. As for the experimental part:
as §1, §2
Also: key: +: good growth; −: no growth.

Take `N[C@@H](Cc1c[nH]cn1)C(=O)O` [L-histidine]: in assay [1] (substrate 20.0 mg/ml), the “Growth after 44 h TG1 (pUC19)” value is “−”. Besides, the “Growth after 44 h TG1 (pYEDA1)” value in assay [2] (substrate 20.0 mg/ml) is “+”.
In the case of `C[C@@H](O)[C@H](N)C(=O)O` [L-threonine], the “Growth after 44 h TG1 (pUC19)” value in assay [1] (substrate 50.0 mg/ml) was “−”. Also, the “Growth after 44 h TG1 (pYEDA1)” value in assay [2] (substrate 50.0 mg/ml) is “+”.
For the compound `N[C@@H](CCO)C(=O)O` [L-homoserine], the “Growth after 44 h TG1 (pUC19)” value in assay [1] (substrate 3.0 mg/ml) is “−”. Also, the “Growth after 44 h TG1 (pYEDA1)” value in assay [2] (substrate 3.0 mg/ml) is listed as “+”.
Turning to `NCCSC[C@H](N)C(=O)O` [S(2-aminoethyl)-L-cysteine], the “Growth after 44 h TG1 (pUC19)” value in assay [1] (substrate 0.4 mg/ml) is “−”. In addition, the “Growth after 44 h TG1 (pYEDA1)” value in assay [2] (substrate 0.4 mg/ml) is recorded as “+”. In addition, the “Growth after 44 h TG1 (pYEDA2)” value in assay [3] (substrate 0.4 mg/ml) was “+”.
As for `N[C@@H](CS)C(=O)O` [L-cysteine], in assay [1] (substrate 7.5 mg/ml), the “Growth after 44 h TG1 (pUC19)” value is on record as “−”. For the same compound, the “Growth after 44 h TG1 (pYEDA1)” value in assay [2] (substrate 7.5 mg/ml) is listed as “+”.
Take `N[C@@H](Cc1ccccc1)C(=O)O` [L-phenylalanine]: the “Growth after 44 h TG1 (pUC19)” value in assay [1] (substrate 20.0 mg/ml) is reported as “−”. In addition, the “Growth after 44 h TG1 (pYEDA1)” value in assay [2] (substrate 20.0 mg/ml) is given as “+”. In assay [3] (substrate 20.0 mg/ml), the “Growth after 44 h TG1 (pYEDA2)” value is on record as “−”.
`NC(Cc1ccc(F)cc1)C(=O)O` (racemic) [p-fluoro-DL-phenylalanine]: the “Growth after 44 h TG1 (pUC19)” value in assay [1] (substrate 1.0 mg/ml) and in assay [1] (substrate 2.0 mg/ml) was “−” each time. Further, the “Growth after 44 h TG1 (pYEDA1)” value in assay [2] (substrate 1.0 mg/ml) and in assay [2] (substrate 2.0 mg/ml) was “+” each time. Moreover, the “Growth after 44 h TG1 (pYEDA2)” value in assay [3] (substrate 1.0 mg/ml) was “+”; in assay [3] (substrate 2.0 mg/ml), “−”.
For `CN(C)CC(N)C(=O)O` (racemic) [4-aza-DL-leucine], the “Growth after 44 h TG1 (pUC19)” value in assay [1] (substrate 1.0 mg/ml) is “−”. The “Growth after 44 h TG1 (pYEDA1)” value in assay [2] (substrate 1.0 mg/ml) is “+”.
Take `NC(Cc1c[nH]c2ccc(F)cc12)C(=O)O` (racemic) [5-fluoro-DL-tryptophane]: the “Growth after 44 h TG1 (pUC19)” value in assay [1] (substrate 0.0005 mg/ml) is listed as “−”. In assay [2] (substrate 0.0005 mg/ml), the “Growth after 44 h TG1 (pYEDA1)” value is reported as “+”.
